In article PMC4519180, “Fluorescence Polarization Screening Assays for Small Molecule Allosteric Modulators of ABL Kinase Function” (PLoS ONE, 2015):

Key:
[1] = target: T1, wild type ABL kinase core (Homo sapiens, UniProt P00519, DEL15-56); assay: ADP Quest kinetic kinase assay, wild type ABL core; type: biochemical; conditions: 30 min pre-incubation; ATP and substrate at Km; mean ± SE, triplicate; read-out: EC50 for activation of ABL core
T1 construct: ABL core proteins (residues 1–531 with an internal deletion of residues 15–56); made in house; host or cells: Sf9 insect cells

[2] = target: T1, wild type ABL kinase core; assay: ADP Quest kinetic kinase assay, wild type ABL core; type: biochemical; conditions: for Activation constant Kact: concentration giving half-maximum velocity; for Activation constant Kact / Vmax: mean ± SE; for Vmax: maximal reaction velocity with activator; for Vmax/Kact: overall enhancement of catalytic efficiency
Method: (§1) The ADP Quest assay (DiscoverRx), which fluorimetrically measures kinase activity as the production of ADP, was used to determine ABL kinase reaction velocities. Assays were performed in quadruplicate in black 384 well plates (Corning #3571) in reaction volumes of 10 μL/well. Recombinant kinase protein concentrations were fixed at 40 ng/well for the wild type ABL core, 9 ng/well for the high affinity linker ABL core, and 250 ng/well for the SRC family kinase HCK. The Tyr2 substrate peptide for ABL (EAIYAAPFAKKK) as well as the SFK substrate peptide (YIYGSFK) were dissolved in the ADP Quest assay buffer (15 mM HEPES, pH 7.4, 20 mM NaCl, 1 mM EGTA, 0.02% Tween-20, 10 mM MgCl2, 0.1 mg/ml bovine γ-globulins), while ATP stocks were prepared in 10 mM Tris-HCl (pH 7.0). Each kinase reaction was initiated by the addition of ATP and read at 5 min intervals for 3 h in a SpectraMax M5 Microplate reader (Molecular Devices). To determine the substrate Km for ABL kinases, the ATP concentration was fixed at 50 μM and the substrate peptide was serially diluted from 0.2–200 μM. For ABL kinase ATP Km determination, the substrate concentration was fixed at the respective substrate Km for each of the kinases, and the ATP concentration was titrated over the range of 0.2–200 μM. The resulting progress curves were analyzed according to the method of Moroco et al.. Briefly, raw fluorescence data were corrected for non-enzymatic ADP production (no kinase or substrate control) and kinase auto-phosphorylation (rate observed in the absence of substrate), and converted to pmol ADP produced using an ADP standard curve generated under the same reaction conditions. The resulting values were normalized to the amount of kinase present in each reaction, and plotted against time. The linear portion of each progress curve was fit by regression analysis to determine the reaction velocity. Substrate and ATP Km values were determined by non-linear regression analysis using the Michaelis-Menten equation (GraphPad Prism 6).
Half-maximal effective concentrations (EC50) and activation constants (Kact) were determined for the ABL kinase core by both dipyridamole and the known ABL activator, DPH (5-(1,3-diaryl-1H-pyrazol-4-yl)hydantoin; Sigma-Aldrich). The kinase was pre-incubated with each compound (10 nM to 100 μM) for 30 min at room temperature, followed by kinase assay with the substrate and ATP concentrations fixed at their respective Km values. The rate of each reaction was plotted against compound concentration, and analyzed by non-linear regression analysis (GraphPad Prism 6) to determine the EC50 value. To determine the activation constant Kact, the basal rate of kinase activity was subtracted from the rates of reaction in the presence of each compound concentration, and plotted as a function of compound concentration. The resulting curves obeyed saturation kinetics and were best-fit by the following equation [19]: Va= Vact[L]/(Kact+[L]) where Va is the reaction velocity in the presence of each activator concentration, Vact is the maximal reaction velocity, L is the activator concentration, and Kact is the activator concentration that yields half-maximal reaction velocity.

[3] = system: wild type ABL core expressed in 293T cells; assay: ABL core autophosphorylation in transfected 293T cells (immunoblot); type: cell-based, human; conditions: for Effect on ABL phosphorylation (pY412, pY245, pY89), compound alone: compound 142 1–10 μM or DPH 10 μM
Method: ABL core proteins were expressed in human 293T cells and analyzed for kinase activity as described elsewhere. Briefly, cells were grown overnight in 60 mm plates, transfected with an expression vector for the wild type ABL core, and treated with compounds 2 h post- transfection. Cells were lysed by sonication 24 h later, and cell lysates clarified by centrifugation. ABL was immunoprecipitated via the C-terminal His-tag, resolved by SDS-PAGE, and transferred to nitrocellulose membranes for immunoblot analysis with antibodies to the ABL protein and the three autophosphorylation sites: pTyr412 (activation loop), pTyr245 (SH2-kinase linker), and pTyr89 (SH3 domain).

[4] = system: ABL core with high-affinity linker (HAL); assay: ADP Quest kinetic kinase assay, high-affinity linker ABL core; type: biochemical, human; conditions: 10 μM; ATP and substrate at Km
Method: as §1, with “Recombinant kinase protein concentrations were fixed at 40 ng/well for the wild type ABL core, 9 ng/well for the high affinity linker ABL core, and 250 ng/well for the SRC family kinase HCK.” left out, “Tyr2” left out, “([…])” for “(YIYGSFK)”, “To determine the substrate Km for ABL kinases, the ATP concentration was fixed at 50 μM and the substrate peptide was serially diluted from 0.2–200 μM. For ABL kinase ATP Km determination, the substrate concentration was fixed at the respective substrate Km for each of the kinases, and the ATP concentration was titrated over the range of 0.2–200 μM.” left out, “The linear portion of each progress curve was fit by regression analysis to determine the reaction velocity.” left out

ABL SH3 domain = target: T2, ABL SH3 domain (Homo sapiens, UniProt P00519); assay: FP assay with isolated ABL SH3 domain and p41 probe; type: binding; conditions: significant inhibition at 3 and 10 μM
T2 construct: we performed FP assays with the N32L protein as well as the isolated ABL SH3 domain; made in house
Method: (§2) Fluorescence Polarization (FP) experiments were performed in quadruplicate in low volume black 384 well plates with a non-binding surface (Corning; catalog # 3676). Peptides and proteins were added to each well in FP assay buffer (20 mM Tris-HCl, pH 8.3) for a final assay volume of 20 μL and mixed by shaking for 5 min at room temperature. The FP signal in millipolarization (mP) units was measured at an excitation wavelength of 485 nm and emission wavelength of 515 nm in a SpectraMax M5 microplate reader (Molecular Devices) using the Softmax Pro software (version 5.4.1). Each plate was read three times and the values were averaged prior to analysis. Raw fluorescence intensity was also read at the same wavelengths for each assay.

SRC-family kinase HCK = target: T3, SRC-family kinase HCK (Homo sapiens, UniProt P08631, Q523E/Q524E/Q525I); assay: ADP Quest kinetic kinase assay, HCK; type: biochemical; conditions: 1 μM; recombinant near-full-length downregulated HCK
T3 construct: made in house; host or cells: Sf9 insect cells
Method: The ADP Quest assay (DiscoverRx), which fluorimetrically measures kinase activity as the production of ADP, was used to determine ABL kinase reaction velocities. Assays were performed in quadruplicate in black 384 well plates (Corning #3571) in reaction volumes of 10 μL/well. Recombinant kinase protein concentrations were fixed at 40 ng/well for the wild type ABL core, 9 ng/well for the high affinity linker ABL core, and 250 ng/well for the SRC family kinase HCK. […] Each kinase reaction was initiated by the addition of ATP and read at 5 min intervals for 3 h in a SpectraMax M5 Microplate reader (Molecular Devices). […] The resulting progress curves were analyzed according to the method of Moroco et al.. Briefly, raw fluorescence data were corrected for non-enzymatic ADP production (no kinase or substrate control) and kinase auto-phosphorylation (rate observed in the absence of substrate), and converted to pmol ADP produced using an ADP standard curve generated under the same reaction conditions. […] Substrate and ATP Km values were determined by non-linear regression analysis using the Michaelis-Menten equation (GraphPad Prism 6).

ABL N32L WT protein = target: T4, ABL N32L WT protein (Homo sapiens, UniProt P00519, DEL15-56); assay: Differential scanning fluorimetry; type: binding; conditions: compound 100 μM, N32L 1 μM, vs DMSO
T4 construct: corresponding to residues 2–255 with an internal deletion of residues 15–56; Gly-His6 (GHHHHHH) (N); made in house; host or cells: E. coli Rosetta2(DE3)pLysS
Method: Hit compounds (100 μM) were pre-incubated with the ABL N32L WT protein (1 μM) for 30 minutes in bicine assay buffer (10 mM bicine, 150 mM NaCl, pH 8.0). SYPRO Orange (Sigma) was added at 5X final concentration and fluorimetry profiles were acquired with a StepOnePlus real-time quantitative PCR instrument (Applied Biosystems) and software (version 2.3). Assays were performed in duplicate in sealed MicroAmp Fast 96-well qPCR plates (Applied Biosystems), and control reactions without proteins were included to correct for background fluorescence. Assays were equilibrated at 25°C for 2 minutes, followed by an increase in temperature at the rate of 1% (1.6°C/min) to 99°C, with continuous data collection. Mean fluorescence intensities, after subtracting background fluorescence, were plotted against temperature. Non-linear regression analysis using the Boltzmann sigmoid function in GraphPad Prism 6 was used to determine the Tm values, the midpoint of the melt curve between the minimum and maximum fluorescence intensities.

ABL N32L protein = target: T5, ABL N32L protein (Homo sapiens, UniProt P00519, DEL15-56); assay: Surface plasmon resonance, immobilized ABL N32L; type: binding
T5 construct: corresponding to residues 2–255 with an internal deletion of residues 15–56; Gly-His6 (GHHHHHH) (N); made in house; host or cells: E. coli Rosetta2(DE3)pLysS
Method: (§3) SPR analysis was performed on a BIAcore T100 instrument (GE Healthcare) using four-channel CM5 biosensor chips at 25°C. Recombinant purified ABL proteins were covalently attached to the CM5 chip via standard amine coupling chemistry. Compound 142 (dipyridamole; Prestwick Chemical) was prepared in 20 mM Tris-HCl, pH 8.3, 150 mM NaCl and 0.1% DMSO and flowed past the immobilized ABL protein channel and a reference channel on the biosensor at a flow rate of 50 μL/min for 3 min over a range of concentrations. The initial binding reaction was followed by dissociation for 5 min, and the chip surface was regenerated using 20 mM Tris-HCl, pH 8.3, 150 mM NaCl, 0.1% DMSO, 0.05% Tween 20 and 1 mM DTT at a flow rate of 50 μL/min for 10 min. Sensorgrams were recorded in triplicate, corrected for buffer effects, and fitted with the 1:1 Langmuir binding model using the BIAevaluation software suite version 2.0.4 (GE Healthcare).

isolated ABL SH3 domain = target: T6, isolated ABL SH3 domain (Homo sapiens, UniProt P00519); assay: Surface plasmon resonance, isolated SH3 domain; type: binding; conditions: SPR, data not shown
T6 construct: we performed FP assays with the N32L protein as well as the isolated ABL SH3 domain; made in house
Method: as §3

[5] = target: T7, ABL N32L protein (Ncap-SH3-SH2-linker) (Homo sapiens, UniProt P00519, DEL15-56); assay: Fluorescence polarization (FP) assay, ABL N32L protein with p41 probe peptide; type: binding
T7 construct: corresponding to residues 2–255 with an internal deletion of residues 15–56; Gly-His6 (GHHHHHH) (N); made in house; host or cells: E. coli Rosetta2(DE3)pLysS
Method: as §2
A collection of 1200 FDA-approved small molecules (Prestwick Chemical, Inc.) was used in a pilot screen with the FP assay. Each library compound was screened at 10 μM and a final DMSO concentration of 1%. Compounds were added to 384-well assay plates first, followed by a pre-mixed complex of the ABL N32L protein (25 μg) and the p41 probe peptide (50 nM). Each plate also contained twenty-eight wells of the wild type N32L protein plus p41 probe and DMSO as positive controls as well as twenty-eight wells of mutant ABL N32L-W118A protein plus p41 probe peptide and DMSO as negative controls. Each plate was mixed on the shaker for 5 min, read three consecutive times, and the average FP signal for each well was calculated. To identify potential hit compounds, three measures were used: (i) average FP signal; (ii) control normalized percent inhibition, in which the FP signal with each compound was normalized to the mean FP signal of the positive and negative plate controls according to the formula: [(sample FP–mean FPWT) / (mean FPW118A –mean FPWT) x 100] [22, 23]; (iii) Z score, a statistical measure of variation of the mean sample FP signal that is independent of plate controls, calculated according to the formula: [(sample FP–mean FPsamples) / standard deviationsamples] [22, 23]. […]

T1 sequence (P00519 with tags, fused parts or gaps isoform P00519-2 DEL15-56): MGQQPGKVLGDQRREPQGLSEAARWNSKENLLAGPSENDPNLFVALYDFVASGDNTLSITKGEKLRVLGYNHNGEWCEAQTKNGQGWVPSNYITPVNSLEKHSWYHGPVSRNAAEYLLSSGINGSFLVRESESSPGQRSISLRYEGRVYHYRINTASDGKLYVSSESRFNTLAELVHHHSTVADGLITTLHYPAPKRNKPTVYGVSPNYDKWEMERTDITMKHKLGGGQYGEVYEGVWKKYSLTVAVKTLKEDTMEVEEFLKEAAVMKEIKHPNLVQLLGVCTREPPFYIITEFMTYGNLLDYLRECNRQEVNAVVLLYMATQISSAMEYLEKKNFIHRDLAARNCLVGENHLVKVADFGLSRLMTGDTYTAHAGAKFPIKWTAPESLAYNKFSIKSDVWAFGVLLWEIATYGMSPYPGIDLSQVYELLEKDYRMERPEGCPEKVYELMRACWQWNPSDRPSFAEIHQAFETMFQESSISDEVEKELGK
T7 sequence (P00519 with tags, fused parts or gaps isoform P00519-2 DEL15-56): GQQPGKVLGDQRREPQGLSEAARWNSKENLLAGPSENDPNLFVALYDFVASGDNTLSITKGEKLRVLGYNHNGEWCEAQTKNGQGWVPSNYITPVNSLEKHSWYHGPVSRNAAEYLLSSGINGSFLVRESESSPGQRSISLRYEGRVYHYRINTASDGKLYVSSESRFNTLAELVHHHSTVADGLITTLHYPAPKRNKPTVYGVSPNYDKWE
T3 sequence (P08631 78-526 Q523E/Q524E/Q525I limits assumed): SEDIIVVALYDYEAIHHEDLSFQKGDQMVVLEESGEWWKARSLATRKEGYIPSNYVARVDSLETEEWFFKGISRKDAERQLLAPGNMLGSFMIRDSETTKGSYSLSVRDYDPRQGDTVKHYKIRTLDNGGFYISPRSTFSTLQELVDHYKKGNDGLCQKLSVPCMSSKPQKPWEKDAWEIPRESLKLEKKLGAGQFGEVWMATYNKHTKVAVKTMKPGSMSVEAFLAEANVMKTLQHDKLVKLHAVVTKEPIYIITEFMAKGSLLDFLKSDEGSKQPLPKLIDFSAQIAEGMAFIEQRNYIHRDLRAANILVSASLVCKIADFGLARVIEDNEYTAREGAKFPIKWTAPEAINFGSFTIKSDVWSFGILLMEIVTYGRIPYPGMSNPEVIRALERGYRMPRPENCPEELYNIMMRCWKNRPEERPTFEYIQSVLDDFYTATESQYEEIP
T2 sequence (P00519 61-121 limits assumed): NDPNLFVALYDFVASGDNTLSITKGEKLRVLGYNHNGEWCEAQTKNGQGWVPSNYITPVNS
T6 sequence (P00519 61-121 limits assumed): as above

Compound	EC50 [1]	Activation constant Kact [2]	Vmax [2]	Vmax/Kact [2]	Effect on ABL phosphorylation (pY412, pY245, pY89), compound alone [3]	Effect on kinase activity of ABL core with HAL substitution [4]	FP signal with ABL SH3 protein over compound concentration range (ABL SH3 domain)	Effect on HCK reaction velocity (SRC-family kinase HCK)	Decrease in Tm (ABL N32L WT protein)	kon (ABL N32L protein; 1:1 Langmuir binding model, 25°C, read-out: Association rate constant)	koff (ABL N32L protein; 1:1 Langmuir binding model, 25°C, read-out: Dissociation rate constant)	Kd (ABL N32L protein; SPR, ABL N32L protein, read-out: Equilibrium dissociation constant (KD), ratio kd/ka)	Kd (isolated ABL SH3 domain)	Stimulation of wild type ABL kinase activity relative to DMSO control ([2]; 10 μM, ATP and substrate at Km)	Inhibition of FP signal relative to DMSO controls (retest) ([5]; 10 μM, quadruplicate, screening assay conditions, p < 0.05)	FP signal with ABL N32L protein over compound concentration range ([5]; significant inhibition at 3 and 10 μM)	Effect on ABL phosphorylation (pY412, pY245, pY89) in the presence of DPH ([3]; compound 142 1–10 μM plus DPH 10 μM)	Effect of unlabeled peptide on FP signal (competition) ([5]; p41 probe 50 nM, N32L 20 μg/well, unlabeled peptide 2.5 to 100 μM)
5-(1,3-diaryl-1H-pyrazol-4-yl)hydantoin [DPH]	1.11 ± 0.5 µM	1.02 ± 0.07 µM	1.90 ± 0.4 µM	1.86	very small effect	did not activate	–	–	–	–	–	–	–	–	–	–	–	–
OCCN(CCO)c1nc(N2CCCCC2)c2nc(N(CCO)CCO)nc(N3CCCCC3)c2n1 [compound 142, dipyridamole]	0.63 ± 0.07 µM	0.4 ± 0.02 µM	3.2 ± 0.28 µM	8.00	did not affect phosphorylation	did not affect	concentration-dependent decrease	no effect	more than 2 °C	3870 ± 590000 M⁻¹ s⁻¹	0.027 ± 7.2e-05 s⁻¹	6.9 µM	30 µM	about 40%	significant inhibition	concentration-dependent decrease	remarkable enhancement of phosphorylation	–
QKEGERALPSIP [non-specific peptide]	–	–	–	–	–	–	–	–	–	–	–	–	–	–	–	–	–	no effect
